What was measured:
STING [1] = assay: ISG activity of protein:CDN and antigen:CDN conjugates in reporter cell lines; assay type: cell-based
Text: In the present invention, we evaluated using reporter cell lines the ISG activity of protein:CDN conjugates using in vitro conditions favorable to the release of both components.

STING [2] = molecular target: STING (Homo sapiens, UniProt Q86WV6, G230A/H232R/R293Q/R71H); assay: ISG54 (IRF pathway) reporter assay in THP1-Dual cells
Type I IFNs [3] = assay: Whole-blood assay, type I IFN induction (HEK-Blue IFN-α/β-KO-STING readout); assay type: cell-based, human; conditions: relative to CL656 at 1 μM
STING [4] = molecular target: T1, STING (Mus musculus, UniProt Q3TBT3); assay: ISG reporter assay in RAW-Lucia ISG cells
T1 sequence (Q3TBT3 1-378): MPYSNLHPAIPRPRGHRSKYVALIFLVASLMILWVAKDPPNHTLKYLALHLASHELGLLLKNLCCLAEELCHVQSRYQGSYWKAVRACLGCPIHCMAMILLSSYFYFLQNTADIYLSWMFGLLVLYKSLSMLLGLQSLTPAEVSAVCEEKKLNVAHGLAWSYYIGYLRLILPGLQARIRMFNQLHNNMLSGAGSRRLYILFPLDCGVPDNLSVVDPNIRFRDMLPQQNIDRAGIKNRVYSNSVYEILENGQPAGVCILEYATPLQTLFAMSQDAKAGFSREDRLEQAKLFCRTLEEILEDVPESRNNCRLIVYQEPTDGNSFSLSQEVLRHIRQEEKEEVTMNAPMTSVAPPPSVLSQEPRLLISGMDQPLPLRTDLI

Type I IFNs [5] = assay: Whole-blood assay, type I IFN induction (HEK-Blue IFN-α/β-KO-STING readout); assay type: cell-based, human; conditions: whole blood assay, type I IFN; read-out: EC50 (μM) IFN in WBA
Text: Type I IFNs: HEK-Blue™ IFN-α/β-KO-STING: These cells, in which the STING gene has been inactivated, are derived from HEK293 cell line known as HEK-Blue™ IFN-α/β (InvivoGen catalog code: hkb-ifnab). HEK-Blue™ IFN-α/β cells enable detection of bioactive human type I IFNs through monitoring of activation of the […]. These cells were generated by stable transfection of HEK293 cells with the human STAT2 and IRF9 genes to obtain a fully active Type-I IFN signaling pathway. The other genes of the pathway (IFNAR1, IFNAR2, JAK1, TyK2 and STAT1) are naturally expressed in sufficient amounts. The cells were further transfected with a SEAP reporter gene under control of an IFNα/β-inducible ISG54 promoter. This promoter comprises five IFN-stimulated response elements (ISREs) fused to a minimal promoter of the human ISG54 gene, which is unresponsive to activators of the NF-κB or AP-1 pathways. Stimulation of HEK-Blue™ IFN-α/β cells with human IFN-α or IFN-β activates the JAK/STAT/ISGF3 pathway and subsequently induces production of SEAP. Production of type I IFNs in these cells is measured using QUANTI-Blue™.
Briefly, the samples were collected by venipuncture into sodium heparin tubes at the time of donation. The samples were analyzed for rhesus (Rh), blood group, hematocrit and serological status (AgHBS, HIV, HCV, HTLV, HBC, CMV, Syph). The tubes were picked up on the day of collection and subsequently tested (blood analysis, and treatment with test items) on the same day.
Each blood sample was diluted (1:2 [v/v]) in RPMI medium and aliquoted into 96-well plates (180-μL wells) containing either CDN (√10-fold serial dilution starting from 50 μM). The plates were incubated at 37° C. in a 5% CO2 incubator for 18 hours. Then, the supernatants were collected, transferred into the corresponding wells of round-bottom 96-well plates, and either stored at −80° C., or immediately tested in the appropriate reporter cell line.
A new 96-wells plate was prepared for each reporter cell lines tested, as follows: 10 μL of supernatant from the previous plate were added to the corresponding well in the new reporter cell plate. Then, a 190-μL aliquot of cells of the desired reporter cell line, previously harvested in medium containing heat-inactivated serum and counted, was added to each well (approximately 50,000 cells/well), and the plate was incubated for approximately 20 hours. The desired cytokine induction activity was determined using the QUANTI-Blue™ assay, as previously described. Briefly, 20 μL of supernatant from the previously incubated plate was transferred to the corresponding well of a new 96-well plate in which 180 μL of QUANTI-Blue™ reagent had previously been added.

[6] = Lipid-based nanoparticle formation (PdI, Z Ave); assay type: physicochemical; conditions: for Z Ave (nm): lipid BAM-CDN particles; for PdI: polydispersity index of lipid BAM-CDN
PDL1 = PDL1 (Homo sapiens, UniProt Q9NZQ7); assay: Antigen binding ELISA of anti-PDL1mAb:CDN conjugate; conditions: relative to anti PDL1 at 10 μg/mL
Text: We performed Whole Blood Assay on healthy human donors to evaluate the ability of the anti-PDL1mAb:CDN conjugate (Compound 47) to induce type I interferons as described previously in Example 2.2. The binding properties of the anti-PDL1mAb:CDN conjugate have been evaluated using ELISA.

Chain of STING (Homo sapiens, UniProt Q86WV6, G230A/H232R/R293Q/R71H) (Q86WV6 whole entry R71H/G230A/H232R/R293Q): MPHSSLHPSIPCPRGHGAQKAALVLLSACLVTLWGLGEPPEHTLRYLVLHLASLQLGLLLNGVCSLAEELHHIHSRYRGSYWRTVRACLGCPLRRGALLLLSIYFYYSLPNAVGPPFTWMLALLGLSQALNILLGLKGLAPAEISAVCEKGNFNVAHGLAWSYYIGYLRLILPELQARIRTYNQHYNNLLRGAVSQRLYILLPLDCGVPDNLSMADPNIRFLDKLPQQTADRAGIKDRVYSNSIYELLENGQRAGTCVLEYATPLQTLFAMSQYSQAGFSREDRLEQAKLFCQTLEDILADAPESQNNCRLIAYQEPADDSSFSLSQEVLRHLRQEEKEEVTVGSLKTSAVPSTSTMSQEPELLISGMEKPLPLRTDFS
Chain of PDL1 (Q9NZQ7 19-290, species assumed): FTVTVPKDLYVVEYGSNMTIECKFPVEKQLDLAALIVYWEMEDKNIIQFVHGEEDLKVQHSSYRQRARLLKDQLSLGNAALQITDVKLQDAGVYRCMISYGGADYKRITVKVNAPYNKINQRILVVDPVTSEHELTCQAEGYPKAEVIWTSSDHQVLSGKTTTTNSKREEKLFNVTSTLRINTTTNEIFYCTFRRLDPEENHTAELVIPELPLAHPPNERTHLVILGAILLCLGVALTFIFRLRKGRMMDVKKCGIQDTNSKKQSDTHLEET

EC50 (STING [2]) | Fold ISG induction vs unstimulated @10 μM (STING [2]; 10 μM, THP1-Dual cells) | Antigen binding (% of anti PDL1 @ 10 μg/mL) (PDL1) | Compound | ISG activity @ 50 μg/mL (% of CL656 @ 1 μM) (STING [1]; antigen:CDN conjugates) | ISG activity @ 50 μg/mL (% of parental CND @ 1 μM) (STING [1]; in vitro conditions favorable to release of both components) | IFN activity @ 50 μg/mL in WBA (% of CL656 @ 1 μM) (Type I IFNs [3]) | ISG activity compared with unmodified parental CDN (STING [4]) | EC50 (Type I IFNs [5]) | Z Ave (nm) [6] | PdI [6] | ISG activity compared with unmodified parental CDN (STING [2]; THP1-Dual cells)
1000 nM | 215 fold | – | Nc1ncnc2c1ncn2[C@@H]1O[C@@H]2COP(=O)(S)O[C@H]3[C@@H](F)[C@H](n4cnc5c(=O)[nH]cnc54)O[C@@H]3COP(=O)(S)O[C@H]2[C@H]1F (some centres unmarked) [CL656, 3′3′-cAIM(PS)2 Difluor (Rp/Sp)] | 100% | 100% | 100% | – | – | – | – | –
– | – | – | CCCCCCCCCCCCCCCC(=O)N[C@H](C(=O)N[C@@H](CCCNC(N)=O)C(=O)Nc1ccc(CSP2(=O)OC[C@H]3O[C@@H](n4cnc5c(N)ncnc54)[C@H](F)[C@@H]3OP(=O)(O)OC[C@H]3O[C@@H](n4cnc5c(O)ncnc54)C[C@@H]3O2)cc1)C(C)C (some centres unmarked) [CL848] | – | – | – | higher ISG activity than the unmodified parental CDN | 0.11 µM | 84.3 nm | 0.18 | higher ISG activity than the unmodified parental CDN
– | – | – | CCCCCCCCCCCCCCCC(=O)N[C@H](C(=O)N[C@@H](C)C(=O)Nc1ccc(CSP2(=O)OC[C@H]3O[C@@H](n4cnc5c(N)ncnc54)[C@H](F)[C@@H]3OP(=O)(O)OC[C@H]3O[C@@H](n4cnc5c(O)ncnc54)[C@H](F)[C@@H]3O2)cc1)C(C)C (some centres unmarked) [CL849] | – | – | – | higher ISG activity than the unmodified parental CDN | – | 152.4 nm | 0.56 | higher ISG activity than the unmodified parental CDN
– | – | – | CCCCCCCCCCCCCCCC(=O)N[C@H](C(=O)N[C@@H](CCCNC(N)=O)C(=O)Nc1ccc(CSP2(=O)OC[C@H]3O[C@@H](n4cnc5c(N)ncnc54)[C@H](F)[C@@H]3OP(=O)(S)OC[C@H]3O[C@@H](n4cnc5c(O)ncnc54)[C@H](F)[C@@H]3O2)cc1)C(C)C (some centres unmarked) [CL853] | – | – | – | higher ISG activity than the unmodified parental CDN | 0.14 µM | 155.9 nm | 0.188 | higher ISG activity than the unmodified parental CDN
– | – | – | CCCCCCCCCCCCCCCC(=O)N[C@H](C(=O)N[C@@H](C)C(=O)Nc1ccc(CSP2(=O)OC[C@H]3O[C@@H](n4cnc5c(N)ncnc54)[C@H](F)[C@@H]3OP(=O)(S)OC[C@H]3O[C@@H](n4cnc5c(O)ncnc54)[C@H](F)[C@@H]3O2)cc1)C(C)C (some centres unmarked) [CL863] | – | – | – | higher ISG activity than the unmodified parental CDN | 0.15 µM | 106.6 nm | 0.416 | higher ISG activity than the unmodified parental CDN
– | – | 100% | Atezolizumab | – | – | 0% | – | – | – | – | –

Source: US11730817B2, “Pro-cyclic dinucleotides and pro-cyclic dinucleotide conjugates for cytokine induction” (INVIVOGEN, priority 2017, dated 2023)
